Test results from US11026916B2, “Treatment for non-alcoholic fatty liver diseases” (DSM IP ASSETS B.V., priority 2014, dated 2021).

What was measured:
Assay type in all cases: cell-based, human
TNF-alpha = TNF-alpha secretion by LPS-stimulated leukocytes (mononuclear cells), multiplex cytokine kit; details: for % reduction of TNF-alpha: pre-incubating cells prior to the stimulation with LPS, concentration not stated in the sentence (Table 1a)
Experimental: (§1) Leukocytes are obtained from healthy donors. Mononuclear cells (MNC) are purified by Ficoll-Isopaque gradient centrifugation. Cells (at 3-8×10^6 cells/mL) are cultured in phenol-red free RPMI 1640, supplemented with 0.25% FBS, 0.1 mM NEAA, 50 U/mL penicillin, 50 μg/mL streptomycin and 5×10^-5 M 2-mercaptoethanol. Cells are stimulated with LPS (100 ng/mL) and IFN-γ (20 U/mL) for 2-24 h. Multiparametric kits for determination of cytokines and chemokines are purchased from BIO-RAD Laboratories (Hercules, Calif.) and used in the LiquiChip Workstation IS 200 (Qiagen, Hilden, Germany). The data are evaluated with the LiquiChip Analyser software (Qiagen).
(§2) The algorithm developed by Chou and Tatalay is used to calculate synergistic effects (Chou, T-C. Et Tatalay, P. A simple Biol. Chem. 252, 6438-6442, 1977; Chou, T-C. Et Tatalay, P. Analysis of combined drug effects—A new look at a very old problem. Trends in Biological Sciences. November 1983, p 450-454, 1983). Interactions are quantified by the Combination Index (CI). Briefly, the % of inhibition of the concentration of each single substance alone or the mixture of both are determined. The affected fraction (fa) (values between 0 and 1) and unaffected fraction (fu) (1−fa), respectively, is calculated. For median-effect plots, log (fa/fu) is plotted against log (D), where D represents the concentration of each single compound alone or the mixture of both. Using CalcuSyn software (Biosoft, Ferguson, Mo.), which is based upon the method by Chou Et Tatalay, a CI is computed for every fraction affected: a CI<1 reflects synergistic inhibition of the respective inflammatory parameter; if CI=1 the substances have additive interactions; when CI>1 the interaction of substances reflects antagonism. It has also been observed that substances can have synergistic or antagonistic interactions at given concentrations or ratios, respectively (see e.g. Pappa et al. Quantitative combination effects between sulforaphane and 3,3′-[…] diindolylmethane on proliferation of human colon cancer cells in vitro. Carcinogenesis 28, 1471-77, 2007).
(§3) Cells are stimulated with LPS, an pathogen-derived component that induces inflammatory response, which is reflected in the expression of inflammatory genes and the secretion of cytokines, interleukins and chemokines (Table 1). LPS induces a massive increase of the secretion of inflammatory mediators such as TNF-alpha. Concomitantly, inflammatory mediators are secreted. These parameters are modulated by pre-incubating cells with α-tocopherol or ω-3 PUFA prior to the stimulation with LPS. For instance, the pro-inflammatory cytokine […] is reduced by 29% and 64%, respectively (Table 1a). […] Thus, the substances reduces the extent of the inflammatory stress in cells that respond to inflammatory stimuli.

CCL4/MIP-1beta = CCL4/MIP-1beta secretion by LPS-stimulated leukocytes (mononuclear cells), multiplex cytokine kit; details: for CCL4/MIP-1 b reduction (in words): pre-incubating cells prior to the stimulation with LPS
Experimental: as §1, §2, §3

IL-1beta = IL-1beta secretion by LPS-stimulated leukocytes (mononuclear cells), multiplex cytokine kit; details: for IL-1beta reduction (in words): pre-incubating cells prior to the stimulation with LPS
Experimental: as §1, with “(Qiagen). […]” for “(Qiagen).”
as §3

SMILES	% reduction of TNF-alpha (TNF-alpha) [%]	% inhibition (vs LPS) of TNF-alpha (TNF-alpha; single substance 10 μM + LPS) [%]	TNF-alpha pg/mL ± SD (TNF-alpha; single substance 10 μM + LPS) [pg/mL]	% inhibition (vs LPS) of TNF-alpha (TNF-alpha; single substance 50 μM + LPS) [%]	TNF-alpha pg/mL ± SD (TNF-alpha; single substance 50 μM + LPS) [pg/mL]	CCL4/MIP-1 b reduction (in words) (CCL4/MIP-1beta)	% inhibition (vs LPS) of CCL4 (CCL4/MIP-1beta; single substance 10 μM + LPS) [%]	CCL4 pg/mL ± SD (CCL4/MIP-1beta; single substance 10 μM + LPS) [pg/mL]	% inhibition (vs LPS) of CCL4 (CCL4/MIP-1beta; single substance 50 μM + LPS) [%]	CCL4 pg/mL ± SD (CCL4/MIP-1beta; single substance 50 μM + LPS) [pg/mL]	IL-1beta reduction (in words) (IL-1beta)	% inhibition (vs LPS) of IL-1beta (IL-1beta; single substance 10 μM + LPS) [%]	IL-1beta pg/mL ± SD (IL-1beta; single substance 10 μM + LPS) [pg/mL]	% inhibition (vs LPS) of IL-1beta (IL-1beta; single substance 50 μM + LPS) [%]	IL-1beta pg/mL ± SD (IL-1beta; single substance 50 μM + LPS) [pg/mL]	other results
Cc1c(C)c2c(c(C)c1O)CC[C@@](C)(CCC[C@H](C)CCC[C@H](C)CCCC(C)C)O2 [AT, α-tocopherol]	29	−4	5505 ± 177	29	3755 ± 21	significantly reduced	7	91400 ± 5657	15	83900 ± 3111	significantly reduced	−7	6770 ± 438	9	5735 ± 134	% inhibition (vs LPS) of TNF-alpha (TNF-alpha; single substance 200 μM + LPS): 27%; TNF-alpha pg/mL ± SD (TNF-alpha; single substance 200 μM + LPS): 3870 ± 14 pg/mL; % inhibition (vs LPS) of CCL4 (CCL4/MIP-1beta; single substance 200 μM + LPS): 11%; CCL4 pg/mL ± SD (CCL4/MIP-1beta; single substance 200 μM + LPS): 87950 ± 3165 pg/mL; % inhibition (vs LPS) of IL-1beta (IL-1beta; single substance 200 μM + LPS): 14%; IL-1beta pg/mL ± SD (IL-1beta; single substance 200 μM + LPS): 5430 ± 113 pg/mL
CC/C=C\C/C=C\C/C=C\C/C=C\C/C=C\C/C=C\CCC(=O)O [DHA, (all-Z)-4,7,10,13,16,19-docosahexaenoic acid]	64	60	3190 ± 14	59	3105 ± 163	significantly reduced	32	79995 ± 3465	62	37600 ± 778	significantly reduced	14	5405 ± 742	77	1440 ± 71	% inhibition (vs LPS) of TNF-alpha (TNF-alpha; single substance 20 μM + LPS): 64%; TNF-alpha pg/mL ± SD (TNF-alpha; single substance 20 μM + LPS): 3400 ± 523 pg/mL; % inhibition (vs LPS) of CCL4 (CCL4/MIP-1beta; single substance 20 μM + LPS): 62%; CCL4 pg/mL ± SD (CCL4/MIP-1beta; single substance 20 μM + LPS): 67000 ± 7523 pg/mL; % inhibition (vs LPS) of IL-1beta (IL-1beta; single substance 20 μM + LPS): 23%; IL-1beta pg/mL ± SD (IL-1beta; single substance 20 μM + LPS): 4865 ± 1633 pg/mL
